Laboratory results: paper PMC11018795, “The regulatory relationship between NAMPT and PD-L1 in cancer and identification of a dual-targeting inhibitor” (EMBO Molecular Medicine, 2024)
“And” between values parts separate entries of the source, which are not always exact repeats. Equal values may be shown once.

Tests used:
[1] = system: LLC sh PD-L1 cells co-cultured with T cells; experiment: T cell killing assay (colony formation), LLC sh PD-L1; type: cell-based; conditions: Mus musculus, 72 h, 100 nM, three days, read-out: inhibition rate of colony formation number
Method: (§1) To acquire activated T cells, human peripheral blood mononuclear cells (PBMC; LTS1077, Yanjin Biological) were cultured in CTSTM AIIM VTM SFM (A3021002; Gibco) with ImmunoCult Human CD3/CD28/CD2 T-cell activator (25 μL/mL; […] Technologies, Cat#10970) for 48 h according to the manufacturer's protocol. The experiments were performed using mouse anti-CD3 antibody (1 μg/mL; Thermo Scientific, 16-0032-82) and anti-CD28 antibody(5 μg/mL; Thermo Scientific, 16-0281-82). […] Different proportions of cancer cells and activated T cells were utilized according to the purpose of each experiment. The T-cell proliferation assay was 1:3; the T-cell killing assay was 1:10; T cells and cell debris were removed by PBS washing, and the living cancer cells were then quantified by a spectrometer at OD (570 nm) followed by crystal violet staining. page 28: Fig 8: Effects of LZFPN-90 and NMN on tumor immune microenvironment. […] (C) T cells were co-cultured with LLC cells, and treated with LZFPN-90 (100 nM), and NMN (1 mM) to detect the cell proliferation by T cell killing assay. Data are presented as mean ± SEM; *P < 0.05, **P < 0.01, ***P < 0.001 compared with control. n.s., not significant. (1 picture or pasted object on this page, not shown here)

[2] = system: HCT-116 cells; experiment: Cell cycle analysis, HCT-116; type: cell-based, human
Description: (§2) Supplement 44321_2024_51_MOESM5_ESM.zip/Fig4-D.xlsx, sheet "Sheet1" | column: G0/G1; S; G2/M

[3] = system: A20 tumors; experiment: A20 tumor-bearing Balb/c nude mice; type: in vivo, mouse; conditions: 20 mg/kg i.p., Fig 6E
Method: The 4–6 weeks-old Balb/c mice and Balb/c nude mice were maintained in a specific pathogen-free (SPF) facility. A20 cells (5 × 10^6 cells in 0.2 ml phosphate-buffered saline) were subcutaneously injected into the right armpit of Balb/c mice and Balb/c nude mice. Tumor volume was measured using calipers every 2 days and calculated using the following formula: (long diameter) × (short diameter)^2/2. […] Balb/c nude mice were treated with LZFPN-90 (20 mg/kg). After 12 days of administration, the animals were anesthetized, and tumors were excised. Some fresh tumor tissues were subjected to immune cell isolation. Tissues were either fixed in 4% formalin or stored at −80 °C until further analysis.

[4] = system: LLC cells; experiment: Cell cycle analysis, LLC; type: cell-based, mouse
Description: as §2

[5] = system: LLC OE PD-L1 cells co-cultured with T cells; experiment: T cell-mediated tumor cell killing assay, LLC OE PD-L1; type: cell-based; conditions: Mus musculus, 100 nM, read-out: inhibition rate (T cell-mediated killing)
Method: To acquire activated T cells, human peripheral blood mononuclear cells (PBMC; LTS1077, Yanjin Biological) were cultured in CTSTM AIIM VTM SFM (A3021002; Gibco) with ImmunoCult Human CD3/CD28/CD2 T-cell activator (25 µL/mL; […] Technologies, Cat#10970) for 48 h according to the manufacturer’s protocol. The experiments were performed using mouse anti-CD3 antibody (1 µg/mL; Thermo Scientific, 16-0032-82) and anti-CD28 antibody(5 µg/mL; Thermo Scientific, 16-0281-82). Cancer cells were allowed to adhere to the plates overnight and then incubated for 48 h with activated T cells in the presence or absence of DX ([…]). Different proportions of cancer cells and activated T cells were utilized according to the purpose of each experiment. The T-cell proliferation assay was 1:3; the T-cell killing assay was 1:10; T cells and cell debris were removed by PBS washing, and the living cancer cells were then quantified by a spectrometer at OD (570 nm) followed by crystal violet staining. page 12: Fig 3: […] expression patterns. […] Data was obtained from the TCGA database. (B) T cell-mediated tumor cell killing assay. T cells were co-cultured with LLC Vector, […] CQ-85, or BMS202. […] stained by crystal violet. The relative added value of activated T cells is shown below. Data are presented as mean ± SEM; *P < 0.05, **P < 0.01, ***P < 0.001, compared with control. n.s., not significant. […]

[6] = system: LLC cells co-cultured with T cells; experiment: T cell killing assay (colony formation), LLC sh Vector; type: cell-based; conditions: Mus musculus, 72 h, 100 nM, three days, read-out: inhibition rate of colony formation number
Method: as §1

[7] = molecular target: T1, PD-L1 (Homo sapiens, UniProt Q9NZQ7); experiment: Cellular thermal shift assay (CETSA), PD-L1, A2780 cells; type: binding; conditions: for Relative band intensity (PD-L1): LZFPN-90 20 nM
T1 construct: endogenous in cells; host or cells: A2780
Method: The cells were resuspended in 1× PBS supplemented with protease inhibitors (Roche) and then divided into strip tubes for 30 min. The tubes were centrifuged at 15,000× g at 4 °C for 15 min. After centrifugation, the supernatant was divided into DMSO and LZFPN-90 (20 nM) groups, and incubated at room temperature for 30 min. According to standard procedures (38 °C, 42 °C, 46 °C, 50 °C, 54 °C, 58 °C, 62 °C, 66 °C), each temperature group was heated for 3 min, incubated at room temperature for 3 min. Then centrifuged at 20,000× g for 25 min, the supernatant was collected, 1× loading buffer was added, the mixture was heated in a metal bath at 95 °C for 10 min, and the amount of non-denatured protein per sample was quantified by western blotting.

[8] = system: H1299 cells; experiment: MTT assay 48 h, H1299; type: cell-based, human; conditions: 1299
Method: Cells (5 × 10^3/well) were seeded into a 96-well plate and cultured at 37 °C in a 5% CO2 incubator. […] At the final time point, 10 μl MTT solution (5 mg/ml, Sigma, Burlington, MA, USA) was added to each well and incubated for an additional 4 h at 37 °C in a 5% CO2 incubator. Then,100 μl of DMSO was added to each well and mixed thoroughly. Optical density was measured at 492 nm using a microplate reader (Molecular Devices, San Jose, CA, USA).

T1 sequence (Q9NZQ7 19-290): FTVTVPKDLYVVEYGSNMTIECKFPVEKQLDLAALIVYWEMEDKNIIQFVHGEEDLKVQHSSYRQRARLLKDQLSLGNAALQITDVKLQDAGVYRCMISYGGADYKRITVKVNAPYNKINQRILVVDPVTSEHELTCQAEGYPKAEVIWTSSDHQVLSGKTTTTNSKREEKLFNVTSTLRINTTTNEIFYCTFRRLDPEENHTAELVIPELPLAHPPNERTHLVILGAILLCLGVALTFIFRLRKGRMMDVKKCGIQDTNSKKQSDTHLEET

CCN(CC)CCCOc1cccc(-c2cccc3c2CCN3C(=O)c2ncc(CNC(=NC#N)Nc3ccncc3)s2)c1 [LZFPN-90]
inhibition at 0.1 µM [1]: 21.9% | Cell cycle G0/G1 ([2]; LZ90 20): 30.68 and 20.48 and 22.54 | Cell cycle G2/M ([2]; LZ90 20): 39.61 and 24.71 and 42.91 | Cell cycle S ([2]; LZ90 20): 43.42 and 36.35 and 37.23 | Cell cycle G0/G1 ([2]; LZ90 40): 26.06 and 19.94 and 21.52 | Cell cycle G2/M ([2]; LZ90 40): 39.6 and 30.95 and 41.08 | Cell cycle S ([2]; LZ90 40): 42.06 and 38.61 and 38.5 | Cell cycle G0/G1 ([2]; LZ90 60): 42.69 and 40.27 and 41.43 | Cell cycle G2/M ([2]; LZ90 60): 18.16 and 13.12 and 19.4 | Cell cycle S ([2]; LZ90 60): 43.44 and 39.68 and 39.66 | TIR (relative tumor weight) [3]: 46.2% | Cell cycle G0/G1 ([4]; LZ90 20): 32.7 and 33.42 and 33.1 | Cell cycle G2/M ([4]; LZ90 20): 8.23 and 9.12 and 10.84 | Cell cycle S ([4]; LZ90 20): 58.16 and 55.72 and 58.65 | Cell cycle G0/G1 ([4]; LZ90 40): 31.17 and 30.64 and 32.74 | Cell cycle G2/M ([4]; LZ90 40): 10.63 and 9.6 and 10.7 | Cell cycle S ([4]; LZ90 40): 59.19 and 58.63 and 56.62 | Cell cycle G0/G1 ([4]; LZ90 60): 31.65 and 30.97 and 32.77 | Cell cycle G2/M ([4]; LZ90 60): 11.3 and 9.97 and 11.14 | Cell cycle S ([4]; LZ90 60): 58.36 and 57.86 and 55.9 | inhibition at 0.1 µM [5]: ~60% | inhibition at 0.1 µM [6]: 48.2% | thermal stability of PD-L1 ([7]; LZFPN-90 20 nM vs blank group): the stability of NAMPT and PD-L1 increased | Relative band intensity (PD-L1) ([7]; 38 ℃): 0.8 and 0.83 | Relative band intensity (PD-L1) ([7]; 42 ℃): 0.79 and 0.8 | Relative band intensity (PD-L1) ([7]; 46 ℃): 0.86 and 0.82 | Relative band intensity (PD-L1) ([7]; 50 ℃): 0.7 and 0.76 | Relative band intensity (PD-L1) ([7]; 54 ℃): 0.56 and 0.61 | Relative band intensity (PD-L1) ([7]; 58 ℃): 1 and 1.07 | Relative band intensity (PD-L1) ([7]; 62 ℃): 0.96 and 0.92 | Relative band intensity (PD-L1) ([7]; 66 ℃): 0.36 and 0.31 | Relative inhibition (敏感性) [8]: 0.02
